Measured values: ChEMBL document CHEMBL4804284

Columns and labels:
Design in all cases: scale not given: the % may be the effect or the level left
[1] = molecular target: Tyrosine-protein kinase JAK2 (Homo sapiens) (UniProt O60674); experiment: Inhibition of DNA-tagged human JAK2 JH1 catalytic domain assessed as percent of control at 50000 nM by qPCR analysis relative to control
[2] = molecular target: Insulin-like growth factor 1 receptor (Homo sapiens) (UniProt P08069); experiment: Inhibition of DNA-tagged human IGF1R assessed as percent of control at 50000 nM by qPCR analysis relative to control
[3] = molecular target: Homeodomain-interacting protein kinase 4 (Homo sapiens) (UniProt Q8NE63); experiment: Inhibition of DNA-tagged human HIPK4 assessed as percent of control at 50000 nM by qPCR analysis relative to control
[4] = molecular target: Homeodomain-interacting protein kinase 3 (Homo sapiens) (UniProt Q9H422); experiment: Inhibition of DNA-tagged human HIPK3 assessed as percent of control at 50000 nM by qPCR analysis relative to control
[5] = molecular target: Serine/threonine-protein kinase/endoribonuclease IRE1 (Homo sapiens) (UniProt O75460); experiment: Inhibition of DNA-tagged human ERN1 assessed as percent of control at 50000 nM by qPCR analysis relative to control
[6] = molecular target: Mitogen-activated protein kinase 7 (Homo sapiens) (UniProt Q13164); experiment: Inhibition of DNA-tagged human ERK5 assessed as percent of control at 50000 nM by qPCR analysis relative to control
[7] = system: Epidermal growth factor receptor (Homo sapiens), P00533 [UNDEFINED MUTATION]; experiment: Inhibition of DNA-tagged human EGFR L747-S752del/P753S double mutant assessed as percent of control at 50000 nM by qPCR analysis relative to control
[8] = system: Epidermal growth factor receptor (Homo sapiens), P00533 [UNDEFINED MUTATION]; experiment: Inhibition of DNA-tagged human EGFR E746-A750del mutant assessed as percent of control at 50000 nM by qPCR analysis relative to control
[9] = molecular target: Serine/threonine-protein kinase MRCK gamma (Homo sapiens) (UniProt Q6DT37); experiment: Inhibition of DNA-tagged human DMPK2 assessed as percent of control at 50000 nM by qPCR analysis relative to control
[10] = molecular target: Mitogen-activated protein kinase kinase kinase 12 (Homo sapiens) (UniProt Q12852); experiment: Inhibition of DNA-tagged human DLK assessed as percent of control at 50000 nM by qPCR analysis relative to control
[11] = molecular target: Casein kinase I isoform gamma-2 (Homo sapiens) (UniProt P78368); experiment: Inhibition of DNA-tagged human CSNK1G2 assessed as percent of control at 50000 nM by qPCR analysis relative to control
[12] = molecular target: Dual specificity protein kinase CLK2 (Homo sapiens) (UniProt P49760); experiment: Inhibition of DNA-tagged human CLK2 assessed as percent of control at 50000 nM by qPCR analysis relative to control
[13] = molecular target: Serine/threonine-protein kinase Chk2 (Homo sapiens) (UniProt O96017); experiment: Inhibition of DNA-tagged human CHEK2 assessed as percent of control at 50000 nM by qPCR analysis relative to control
[14] = molecular target: Cyclin-dependent kinase 9 (Homo sapiens) (UniProt P50750); experiment: Inhibition of DNA-tagged human CDK9 assessed as percent of control at 50000 nM by qPCR analysis relative to control
[15] = molecular target: Cyclin-dependent kinase 7 (Homo sapiens) (UniProt P50613); experiment: Inhibition of DNA-tagged human CDK7 assessed as percent of control at 50000 nM by qPCR analysis relative to control
[16] = molecular target: Calcium/calmodulin-dependent protein kinase type II subunit gamma (Homo sapiens) (UniProt Q13555); experiment: Inhibition of DNA-tagged human CAMK2G assessed as percent of control at 50000 nM by qPCR analysis relative to control
[17] = molecular target: Tyrosine-protein kinase BTK (Homo sapiens) (UniProt Q06187); experiment: Inhibition of DNA-tagged human BTK assessed as percent of control at 50000 nM by qPCR analysis relative to control
[18] = molecular target: NUAK family SNF1-like kinase 1 (Homo sapiens) (UniProt O60285); experiment: Inhibition of DNA-tagged human ARK5 assessed as percent of control at 50000 nM by qPCR analysis relative to control
[19] = molecular target: Activin receptor type-2A (Homo sapiens) (UniProt P27037); experiment: Inhibition of DNA-tagged human ACVR2A assessed as percent of control at 50000 nM by qPCR analysis relative to control
[20] = molecular target: Tyrosine-protein kinase ABL1 (Homo sapiens) (UniProt P00519); experiment: Inhibition of DNA-tagged non-phosphorylated human ABL1 assessed as percent of control at 50000 nM by qPCR analysis relative to control
[21] = system: Tyrosine-protein kinase ABL1 (Homo sapiens), P00519 [T315I]; experiment: Inhibition of DNA-tagged phosphorylated human ABL1 T315I mutant assessed as percent of control at 50000 nM by qPCR analysis relative to control
[22] = molecular target: Serine/threonine-protein kinase LATS1 (Homo sapiens) (UniProt O95835); experiment: Inhibition of DNA-tagged human LATS1 assessed as percent of control at 50000 nM by qPCR analysis relative to control
[23] = molecular target: Mitogen-activated protein kinase kinase kinase 2 (Homo sapiens) (UniProt Q9Y2U5); experiment: Inhibition of DNA-tagged human MAP3K2 assessed as percent of control at 50000 nM by qPCR analysis relative to control
[24] = molecular target: Mitogen-activated protein kinase kinase kinase kinase 5 (Homo sapiens) (UniProt Q9Y4K4); experiment: Inhibition of DNA-tagged human MAP4K5 assessed as percent of control at 50000 nM by qPCR analysis relative to control
[25] = molecular target: Serine/threonine-protein kinase 38 (Homo sapiens) (UniProt Q15208); experiment: Inhibition of DNA-tagged human NDR1 assessed as percent of control at 50000 nM by qPCR analysis relative to control
[26] = molecular target: Serine/threonine-protein kinase Nek1 (Homo sapiens) (UniProt Q96PY6); experiment: Inhibition of DNA-tagged human NEK1 assessed as percent of control at 50000 nM by qPCR analysis relative to control
[27] = molecular target: Serine/threonine-protein kinase RIO1 (Homo sapiens) (UniProt Q9BRS2); experiment: Inhibition of DNA-tagged human RIOK1 assessed as percent of control at 50000 nM by qPCR analysis relative to control
[28] = molecular target: SNF-related serine/threonine-protein kinase (Homo sapiens) (UniProt Q9NRH2); experiment: Inhibition of DNA-tagged human SNRK assessed as percent of control at 50000 nM by qPCR analysis relative to control
[29] = molecular target: Serine/threonine-protein kinase 16 (Homo sapiens) (UniProt O75716); experiment: Inhibition of DNA-tagged human STK16 assessed as percent of control at 50000 nM by qPCR analysis relative to control
[30] = molecular target: Tyrosine-protein kinase Tec (Homo sapiens) (UniProt P42680); experiment: Inhibition of DNA-tagged human TEC assessed as percent of control at 50000 nM by qPCR analysis relative to control

Sequence of Epidermal growth factor receptor (Homo sapiens), P00533 [UNDEFINED MUTATION] (P00533 whole entry, looked up, stated change not applied): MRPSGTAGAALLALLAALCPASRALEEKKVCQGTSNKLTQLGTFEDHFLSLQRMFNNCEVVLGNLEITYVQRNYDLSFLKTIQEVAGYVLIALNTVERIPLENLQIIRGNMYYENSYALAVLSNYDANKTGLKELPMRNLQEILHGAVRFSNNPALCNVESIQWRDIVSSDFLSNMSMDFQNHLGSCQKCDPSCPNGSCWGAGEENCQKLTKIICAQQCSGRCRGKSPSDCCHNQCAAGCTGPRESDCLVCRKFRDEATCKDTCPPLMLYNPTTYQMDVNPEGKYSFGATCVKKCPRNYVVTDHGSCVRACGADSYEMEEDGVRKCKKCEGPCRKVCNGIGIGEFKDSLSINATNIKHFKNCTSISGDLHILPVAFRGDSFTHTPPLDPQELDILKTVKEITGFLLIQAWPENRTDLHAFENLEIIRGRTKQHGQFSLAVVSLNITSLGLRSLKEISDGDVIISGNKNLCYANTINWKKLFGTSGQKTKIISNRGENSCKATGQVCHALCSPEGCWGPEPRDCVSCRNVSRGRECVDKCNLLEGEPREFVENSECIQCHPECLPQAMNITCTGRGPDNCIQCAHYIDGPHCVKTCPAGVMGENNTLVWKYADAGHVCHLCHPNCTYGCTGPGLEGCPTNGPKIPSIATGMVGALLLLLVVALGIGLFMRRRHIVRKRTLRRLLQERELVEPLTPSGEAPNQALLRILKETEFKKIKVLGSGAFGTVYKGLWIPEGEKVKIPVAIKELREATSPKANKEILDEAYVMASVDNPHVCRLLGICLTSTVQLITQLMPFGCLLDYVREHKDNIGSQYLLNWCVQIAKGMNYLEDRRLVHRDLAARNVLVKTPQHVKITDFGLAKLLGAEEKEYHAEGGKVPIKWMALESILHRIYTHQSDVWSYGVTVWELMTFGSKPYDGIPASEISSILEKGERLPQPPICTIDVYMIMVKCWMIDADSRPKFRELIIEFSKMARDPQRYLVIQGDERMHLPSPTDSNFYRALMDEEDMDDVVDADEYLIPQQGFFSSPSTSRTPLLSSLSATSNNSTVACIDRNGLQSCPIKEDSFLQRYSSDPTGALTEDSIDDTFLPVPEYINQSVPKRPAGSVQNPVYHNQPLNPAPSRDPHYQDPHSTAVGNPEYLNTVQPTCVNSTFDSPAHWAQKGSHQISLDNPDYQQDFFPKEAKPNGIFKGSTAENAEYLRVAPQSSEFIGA
Sequence of Calcium/calmodulin-dependent protein kinase type II subunit gamma (Homo sapiens) (Q13555 whole entry): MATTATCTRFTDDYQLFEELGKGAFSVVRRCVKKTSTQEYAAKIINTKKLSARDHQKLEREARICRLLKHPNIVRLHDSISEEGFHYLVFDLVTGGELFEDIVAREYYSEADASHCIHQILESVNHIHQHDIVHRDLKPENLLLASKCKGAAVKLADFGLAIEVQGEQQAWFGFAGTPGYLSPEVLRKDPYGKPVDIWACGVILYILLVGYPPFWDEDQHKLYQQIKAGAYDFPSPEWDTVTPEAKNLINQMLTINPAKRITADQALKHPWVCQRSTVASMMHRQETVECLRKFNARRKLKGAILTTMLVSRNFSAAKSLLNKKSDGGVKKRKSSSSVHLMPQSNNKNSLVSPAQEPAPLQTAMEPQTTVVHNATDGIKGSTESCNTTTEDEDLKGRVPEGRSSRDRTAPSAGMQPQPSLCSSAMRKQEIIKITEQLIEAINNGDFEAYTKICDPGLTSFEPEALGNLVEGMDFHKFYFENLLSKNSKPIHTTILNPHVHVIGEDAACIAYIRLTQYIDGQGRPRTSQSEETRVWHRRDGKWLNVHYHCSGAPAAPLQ
Sequence of Mitogen-activated protein kinase kinase kinase 12 (Homo sapiens) (Q12852 whole entry, canonical isoform): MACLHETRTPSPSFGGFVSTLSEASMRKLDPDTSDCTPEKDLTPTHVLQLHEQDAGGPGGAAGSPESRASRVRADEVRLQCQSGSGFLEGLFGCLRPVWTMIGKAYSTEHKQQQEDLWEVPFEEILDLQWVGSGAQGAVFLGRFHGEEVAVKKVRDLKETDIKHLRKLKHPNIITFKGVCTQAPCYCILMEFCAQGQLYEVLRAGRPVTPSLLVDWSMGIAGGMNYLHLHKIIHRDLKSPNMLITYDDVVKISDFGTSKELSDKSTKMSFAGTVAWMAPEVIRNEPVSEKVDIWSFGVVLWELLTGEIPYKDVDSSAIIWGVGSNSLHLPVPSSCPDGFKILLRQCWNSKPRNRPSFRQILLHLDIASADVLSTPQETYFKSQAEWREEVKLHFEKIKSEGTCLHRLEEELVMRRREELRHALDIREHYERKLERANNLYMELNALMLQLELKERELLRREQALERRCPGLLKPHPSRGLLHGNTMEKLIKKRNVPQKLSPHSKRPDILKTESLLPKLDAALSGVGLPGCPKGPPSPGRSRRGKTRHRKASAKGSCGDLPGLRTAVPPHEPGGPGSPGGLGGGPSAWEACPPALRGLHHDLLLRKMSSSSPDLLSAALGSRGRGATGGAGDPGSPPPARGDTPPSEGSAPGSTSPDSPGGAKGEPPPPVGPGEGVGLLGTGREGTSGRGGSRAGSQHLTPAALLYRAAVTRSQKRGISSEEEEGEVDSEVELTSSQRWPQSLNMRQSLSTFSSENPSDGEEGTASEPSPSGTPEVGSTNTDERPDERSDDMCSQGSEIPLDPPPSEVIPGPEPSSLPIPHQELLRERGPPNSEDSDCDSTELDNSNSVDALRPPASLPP
Sequence of Cyclin-dependent kinase 9 (Homo sapiens) (P50750 whole entry): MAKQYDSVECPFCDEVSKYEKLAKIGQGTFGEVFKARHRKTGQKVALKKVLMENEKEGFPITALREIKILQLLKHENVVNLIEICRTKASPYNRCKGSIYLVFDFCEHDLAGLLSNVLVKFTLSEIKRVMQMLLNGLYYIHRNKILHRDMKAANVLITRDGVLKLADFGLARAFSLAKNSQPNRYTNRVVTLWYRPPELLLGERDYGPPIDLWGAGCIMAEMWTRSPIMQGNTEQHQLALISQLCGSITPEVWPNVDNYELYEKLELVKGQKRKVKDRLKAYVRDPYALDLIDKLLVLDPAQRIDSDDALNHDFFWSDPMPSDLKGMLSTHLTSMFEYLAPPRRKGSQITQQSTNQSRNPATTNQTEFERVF
Sequence of Serine/threonine-protein kinase Nek1 (Homo sapiens) (Q96PY6 whole entry): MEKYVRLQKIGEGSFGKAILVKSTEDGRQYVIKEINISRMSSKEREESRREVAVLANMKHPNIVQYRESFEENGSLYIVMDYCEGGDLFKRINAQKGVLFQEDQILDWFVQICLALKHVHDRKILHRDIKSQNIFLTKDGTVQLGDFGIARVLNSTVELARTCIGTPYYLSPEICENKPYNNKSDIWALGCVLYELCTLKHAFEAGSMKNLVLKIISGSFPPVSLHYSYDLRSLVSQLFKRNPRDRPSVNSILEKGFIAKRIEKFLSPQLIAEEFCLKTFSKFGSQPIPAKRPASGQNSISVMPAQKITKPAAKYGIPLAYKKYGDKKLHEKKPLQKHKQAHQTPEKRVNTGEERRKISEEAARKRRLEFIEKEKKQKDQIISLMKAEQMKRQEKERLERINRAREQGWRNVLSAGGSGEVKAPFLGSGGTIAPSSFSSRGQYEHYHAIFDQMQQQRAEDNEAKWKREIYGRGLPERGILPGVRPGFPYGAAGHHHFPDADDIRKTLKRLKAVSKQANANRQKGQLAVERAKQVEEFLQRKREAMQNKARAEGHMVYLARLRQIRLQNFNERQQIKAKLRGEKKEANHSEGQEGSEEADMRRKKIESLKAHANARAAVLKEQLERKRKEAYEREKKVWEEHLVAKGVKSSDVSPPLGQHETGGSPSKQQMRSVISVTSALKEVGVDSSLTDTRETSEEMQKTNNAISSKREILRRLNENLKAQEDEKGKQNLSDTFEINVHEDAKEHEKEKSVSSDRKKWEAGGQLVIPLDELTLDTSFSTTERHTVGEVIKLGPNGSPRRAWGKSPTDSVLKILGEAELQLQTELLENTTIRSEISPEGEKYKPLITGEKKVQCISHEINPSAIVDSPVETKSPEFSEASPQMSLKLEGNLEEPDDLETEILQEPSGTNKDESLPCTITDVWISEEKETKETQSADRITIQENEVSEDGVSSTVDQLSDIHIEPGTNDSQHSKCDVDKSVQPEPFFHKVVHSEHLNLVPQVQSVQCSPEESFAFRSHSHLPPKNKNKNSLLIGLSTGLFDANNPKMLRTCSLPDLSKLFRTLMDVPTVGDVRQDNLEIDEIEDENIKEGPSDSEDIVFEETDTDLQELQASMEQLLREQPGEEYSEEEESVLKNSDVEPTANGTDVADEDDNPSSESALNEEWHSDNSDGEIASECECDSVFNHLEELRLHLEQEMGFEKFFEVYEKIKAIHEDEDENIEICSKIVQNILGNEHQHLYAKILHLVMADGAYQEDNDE
Sequence of Serine/threonine-protein kinase 38 (Homo sapiens) (Q15208 2-465 limits assumed): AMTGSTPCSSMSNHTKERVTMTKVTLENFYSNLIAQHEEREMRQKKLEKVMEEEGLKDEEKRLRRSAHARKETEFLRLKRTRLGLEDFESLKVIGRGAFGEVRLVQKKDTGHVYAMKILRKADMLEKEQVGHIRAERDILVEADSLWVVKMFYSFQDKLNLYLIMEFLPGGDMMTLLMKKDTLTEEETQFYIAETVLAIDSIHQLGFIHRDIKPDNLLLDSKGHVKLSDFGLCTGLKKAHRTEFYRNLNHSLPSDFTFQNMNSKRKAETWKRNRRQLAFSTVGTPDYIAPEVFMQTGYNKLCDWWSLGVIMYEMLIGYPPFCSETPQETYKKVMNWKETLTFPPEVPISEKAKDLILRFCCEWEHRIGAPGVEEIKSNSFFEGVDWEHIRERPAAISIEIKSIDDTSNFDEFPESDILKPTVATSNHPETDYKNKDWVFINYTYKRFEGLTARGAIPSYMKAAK
Sequence of Serine/threonine-protein kinase 16 (Homo sapiens) (O75716 whole entry): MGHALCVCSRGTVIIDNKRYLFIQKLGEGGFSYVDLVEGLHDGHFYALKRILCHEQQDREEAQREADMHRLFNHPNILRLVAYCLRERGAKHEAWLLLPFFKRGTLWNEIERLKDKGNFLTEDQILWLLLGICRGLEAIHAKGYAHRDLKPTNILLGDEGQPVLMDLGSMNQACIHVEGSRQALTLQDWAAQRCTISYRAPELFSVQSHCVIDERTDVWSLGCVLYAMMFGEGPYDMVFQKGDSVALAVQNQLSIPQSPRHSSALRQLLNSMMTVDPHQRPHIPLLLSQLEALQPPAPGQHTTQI

CN1C(=O)/C(=C2/C(=O)Nc3ccccc32)c2ccccc21
Activity [1]: 73%
Activity [2]: 100%
Activity [3]: 100%
Activity [4]: 80%
Activity [5]: 83%
Activity [6]: 97%
Activity [7]: 64%
Activity [8]: 83%
Activity [9]: 92%
Activity [10]: 100%
Activity [11]: 93%
Activity [12]: 75%
Activity [13]: 100%
Activity [14]: 84%
Activity [15]: 100%
Activity [16]: 90%
Activity [17]: 82%
Activity [18]: 85%
Activity [19]: 99%
Activity [20]: 100%
Activity [21]: 98%
Activity [22]: 100%
Activity [23]: 99%
Activity [24]: 100%
Activity [25]: 87%
Activity [26]: 92%
Activity [27]: 87%
Activity [28]: 81%
Activity [29]: 89%
Activity [30]: 100%
